Patent US10774039B2, “Cyclopropene amino acids and methods” (United Kingdom Research and Innovation, priority 2014, dated 2020)

Tests used:
DH10B cells = assay: E. coli growth (OD600) in presence of 3 during SORT-M; format: cell-based
Procedure: Chemically competent DH10B cells were transformed with two plasmids: pBKwtPylRS necessary for expression of PylRS, and pBAD_wtT4L_MbPylTXXX plasmids that is required for expression of PyltRNAXXX and expresses lysozyme under arabinose control. […] 200 μL aliquots of these cultures were transferred into a 96-well plate and OD600 measured using a Microplate reader, Infinite 200 Pro (TECAN). OD600 was measured for each sample every 10 min with linear 1 mm shaking between the measurements.

PylRS, PyltRNAUUU = assay: Time-dependent proteome incorporation of 3 via SORT-M in E. coli, detected with 4a; format: cell-based; settings: AAA codon, detection with 4a
Procedure: Chemically competent DH10B cells were transformed with two plasmids: pBKwtPylRS necessary for expression of PylRS, and pBAD_wtT4LMbPylTUUU plasmid that is required for expression of PyltRNAUUU. pBAD_wtT4L_MbPylTUUU plasmid also contains the gene for expression of T4 lysozyme that is downstream of arabinose-inducible promoter. After transformation, cells were recovered in 1 ml SOB medium for one hour at 37° C. prior to inoculation in 10 ml LB-KT (LB media with 50 μg ml^−1 kanamycin, and 25 μg tetracycline). The culture was incubated overnight (37° C., 250 rpm, 12 h) and subsequently diluted to an OD600˜0.3 in 30 mL LB-KT1/2 (LB media with 25 μg ml^−1 kanamycin, and 12.5 μg ml^−1 tetracycline) supplemented with 3 at different concentrations, 0, 0.1, 0.5 mM. The cultures was incubated (37° C., 250 rpm) for 1 h, when OD600 reached approximately 0.6. 2 ml culture aliquot was collected in a separate tube for each of three cultures. This is the pre-induction culture (lane labelled as 1 in the gel image). Subsequently arabinose was added at a final concentration of 0.2% (v/v) to induce expression of T4 lysozyme and culture aliquots of 2 mL were collected every hour (lanes labelled as 2, 3 and 4 corresponding to 1, 2 and 3 h culture collection after induction). […] Samples were analysed by 4-12% SDS-PAGE and fluorescent images were acquired using Typhoon Trio phosphoimager (GE Life Sciences) […]

`CC1=CC1COC(=O)NCCCC[C@H](N)C(=O)O` (stereo partly drawn) [amino acid 3, N^ε-[((2-methylcycloprop-2-en-1-yl)methoxy)carbonyl]-L-lysine] was tested, and the “toxicity to cells of incorporation via SORT-M” value (DH10B cells; 0.1 mM) was “Not Toxic”, the “effect on cell growth” value (DH10B cells; 0.1 or 0.5 mM) was “little or no effect on cell growth” and the “time to substantial labelling after amino acid addition” value (PylRS, PyltRNAUUU) was ≤ 1 h.
